What was measured:
[1] = One- and two-photon fluorescence titration with free Zn2+ (dissociation constant, fluorescence enhancement factor); format: binding
Procedure: (§1) It was predicted as a result of blocking the photo-induced electron transfer (PeT) process caused by complexation with metal ions.
As a result of measuring a fluorescence increase factor (FEF=(F−Fmin)/Fmin) value of the two-photon fluorescent probe (SZn-Mito) by one- and two-photon processes, the FEF value was represented as 7 in the presence of excessive zinc ions (Table 1).
MOPS (4-morpholinepropanesulfonic acid) buffers (30 mM, pH 7.2, 0.1 M KCl) including varying amounts of ZnSO4 and 10 mM EGTA (ethylene glycol-bis(2-aminoethylether)-N,N,N′,N′-tetraacetic acid) were prepared.
The concentration of free Zn^2+ ([Zn^2+]free) was calculated from KZn-EGTA^app,[EGTA] total, and [Zn^2+]total by using following Equation 1:
After that, the stability constant of a Zn^2+ complex of EGTA (KZn-EGTA) was obtained by a conventional method known in the art. As a result, for EGTA (pH 7.2, 0.1 M KCl, 25[…]), pK1=9.40, pK2=8.79, pK3=2.70, and log KZn-EGTA=12.6 were obtained.
All protonation constants at 0.1 M ion strength workout were corrected upward by 0.11, [EGTA]total was fixed at 10 mM, and [Zn^2+]total was in the range from 0 to 9.5 mM.
In order to clearly determine a dissociation constant of the two-photon fluorescent probe, FIG. 2c as a fluorescence titration curve was obtained from FIG. 2b by using following Equation 2.
wherein F is a fluorescence intensity. Fmax is a maximum fluorescence intensity, Fo is a fluorescence intensity in the absence of Zn^2+, and [Zn^2+]free is a concentration of free Zn^2+.
Kd values that well complies with the titration curve (FIG. 2c) according to Equation 2 were calculated by using a commercial Origin software. […] A two-photon excitation fluorescence titration curve was obtained, which was fitted to Equation 2 (FIGS. 2c and 2d).

[2] = test system: HeLa cells; assay: Light stability of TPEF intensity in labeled HeLa cells; format: cell-based; settings: exposure 60 min
[3] = Effect of pH on one-photon fluorescence intensity; format: physicochemical; settings: physiological pH; absence and presence of free Zn2+
[4] = test system: HeLa cells; assay: Toxicity test using a CCK-8 kit; format: cell-based
From the text: In order to confirm whether the two-photon fluorescent probe of the present invention can detect intracellular zinc ions, the effect of the two-photon fluorescent probe (SZn-Mito) on the cells was examined by the following toxicity test.

[5] = Optical and physical properties of the two-photon fluorescent probe in MOPS buffer; format: physicochemical; settings: absence of Zn2+
Procedure: In order to investigate optical and physical properties of the two-photon fluorescent probe (SZn-Mito), the following experiment was carried out by using a MOPS (3-(N-morpholino)propane sulfonic acid) buffer.
as §1

[6] = Selectivity for metal cations in MOPS buffer; format: physicochemical; settings: MOPS buffer pH 7.2, 1.0 μM probe
Procedure: The selectivity for metal cations was determined by using the MOPS buffer (30 mM MOPS, 100 mM KCl, 10 mM EGTA, pH 7.2) including the two-photon fluorescent probe. […] However, because there are very little metal ions such as Co^2+, Ni^2+ and Cu^2+ inside the cells, the two-photon fluorescent probe of the present invention has an advantage that it can detect zinc ions (Zn^2+) without the interference caused by competition with other metal ions.

[7] = test system: zinc ions within the mitochondria of HeLa cells; assay: Two-photon microscopy monitoring of zinc ion changes in living HeLa cells; format: cell-based
Procedure: TPEF images were collected at a range from 425-575 nm (fs pulses, 760 nm excitation conditions);
When DTDP (2,2′-dithiodipyridine; […]), reagent capable of inducing dissociation of Zn^2+ ions from Zn^2+-binding proteins, was added to the HeLa cells labeled with the two-photon fluorescent probe (SZn-Mito), the TPEF intensity was increased. When CCCP (carbonyl cyanide m-chlorophenylhydrazone; […]), a compound capable of disrupting a transmembrane potential difference of the mitochondria and increasing the release of cations within the mitochondria, was added thereto, the TPEF intensity was decreased. Also, when the HeLa cells were treated with […] (2-mercaptopyridine N-oxide), a reagent capable of delivering Zn^2+ to the cytoplasm, the TPEF intensity was increased, and when they were treated with CCCP, the TPEF intensity was decreased (FIG. 1).

change of TPEF intensity under continuous fs-pulse radiation (light stability) [2]: not decreased at all
reaction to pH (fluorescence intensity) [3]: unreacted at physiological pH
λmax(1), one-photon absorption spectra ([5]; 30 mM MOPS, 100 mM KCl, 10 mM EGTA, pH 7.2): 388 nm
λmax fl, one-photon emission spectra ([5]; MOPS buffer pH 7.2): 500 nm
10^−4 ε, molar excitation coefficient ([5]; MOPS buffer pH 7.2, value is 10^−4 ε): 1.87 M^−1cm^−1
F, fluorescence quantum yield ([5]; MOPS buffer pH 7.2, ±15%): 0.15
SMILES: CN(CC(=O)NCC[P+](c1ccccc1)(c1ccccc1)c1ccccc1)c1ccc2cc(-c3nc4ccc(NCCN(Cc5ccccn5)Cc5ccccn5)cc4s3)ccc2c1 [SZn-Mito]
detection limit for Zn2+ ([1]; from fluorescence titration): nM range
FEF, fluorescence enhancement factor (F−Fmin)/Fmin, one-photon process ([1]; one-photon, presence of excessive zinc ions): 7
FEF, fluorescence enhancement factor (F−Fmin)/Fmin, two-photon process ([1]; two-photon, presence of excessive zinc ions): 7
toxicity to cells (CCK-8 kit) [4]: negligible and extremely low toxicity
fluorescence in the presence of Co2+, Ni2+ and Cu2+ [6]: fluorescence was decreased
selectivity for Cd2+ [6]: relatively high selectivity for Cd^2+
selectivity for Zn2+ compared with Na+, K+, Ca2+, Mg2+, Mn2+, Fe2+ and Fe3+ [6]: higher selectivity for Zn^2+
TPEF intensity after treatment with Zn2+ and pyrithione ([7]; HeLa cells, 100 mM Zn2+ and 100 mM pyrithione): increased
TPEF intensity after addition of CCCP ([7]; labeled HeLa cells after DTDP, CCCP 10 mM): decreased
TPEF intensity after addition of DTDP ([7]; labeled HeLa cells, DTDP 150 mM): increased
